SMILES strings stand for the structures. Where a chain is given by its changes, count along the chain named. Some results are limits rather than exact numbers.

Assay [1] deals with T1, Retinoic acid receptor gamma (Homo sapiens, UniProt P13631).
T1 sequence (P13631 whole entry): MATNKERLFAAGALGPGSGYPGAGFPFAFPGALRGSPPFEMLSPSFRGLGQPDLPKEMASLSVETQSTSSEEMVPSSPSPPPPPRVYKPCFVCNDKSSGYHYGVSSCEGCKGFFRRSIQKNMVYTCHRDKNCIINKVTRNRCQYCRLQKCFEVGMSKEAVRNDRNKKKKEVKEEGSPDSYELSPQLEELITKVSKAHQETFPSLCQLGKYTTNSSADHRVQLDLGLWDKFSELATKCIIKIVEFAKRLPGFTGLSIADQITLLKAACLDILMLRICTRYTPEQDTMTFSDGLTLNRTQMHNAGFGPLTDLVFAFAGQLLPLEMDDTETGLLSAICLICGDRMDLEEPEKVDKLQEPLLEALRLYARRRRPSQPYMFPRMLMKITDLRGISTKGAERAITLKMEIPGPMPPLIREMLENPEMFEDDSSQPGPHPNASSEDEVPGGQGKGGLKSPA
Kind of assay: Inhibition of [3H]ATRA binding to human Retinoic acid receptor RAR gamma.

Assay [2] addresses T2, Retinoic acid receptor beta (Homo sapiens, UniProt P10826).
T2 sequence (P10826 whole entry): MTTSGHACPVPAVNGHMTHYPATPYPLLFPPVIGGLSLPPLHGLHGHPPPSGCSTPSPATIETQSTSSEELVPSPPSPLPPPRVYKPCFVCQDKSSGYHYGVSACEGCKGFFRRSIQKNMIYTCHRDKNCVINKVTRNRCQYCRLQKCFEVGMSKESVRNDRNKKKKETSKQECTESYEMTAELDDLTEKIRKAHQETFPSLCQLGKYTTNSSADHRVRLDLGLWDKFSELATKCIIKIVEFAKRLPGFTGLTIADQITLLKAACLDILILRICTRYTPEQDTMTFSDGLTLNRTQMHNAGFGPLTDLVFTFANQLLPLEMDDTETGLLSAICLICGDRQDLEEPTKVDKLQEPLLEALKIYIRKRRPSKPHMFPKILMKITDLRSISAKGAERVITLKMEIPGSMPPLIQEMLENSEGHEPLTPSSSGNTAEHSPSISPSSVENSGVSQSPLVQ
Kind of assay: Inhibition of [3H]-ATRA binding to human Retinoic acid receptor RAR beta.

Assay [3] concerns the target T1, Retinoic acid receptor gamma. Kind of assay: Transcriptional activation in CV-1 cells expressing human Retinoic acid receptor RAR gamma; Not active. The assay is classed as cell-based.
Assay [4] addresses T3, Retinoic acid receptor RXR-beta (Mus musculus, UniProt P28704).
T3 sequence (P28704 whole entry): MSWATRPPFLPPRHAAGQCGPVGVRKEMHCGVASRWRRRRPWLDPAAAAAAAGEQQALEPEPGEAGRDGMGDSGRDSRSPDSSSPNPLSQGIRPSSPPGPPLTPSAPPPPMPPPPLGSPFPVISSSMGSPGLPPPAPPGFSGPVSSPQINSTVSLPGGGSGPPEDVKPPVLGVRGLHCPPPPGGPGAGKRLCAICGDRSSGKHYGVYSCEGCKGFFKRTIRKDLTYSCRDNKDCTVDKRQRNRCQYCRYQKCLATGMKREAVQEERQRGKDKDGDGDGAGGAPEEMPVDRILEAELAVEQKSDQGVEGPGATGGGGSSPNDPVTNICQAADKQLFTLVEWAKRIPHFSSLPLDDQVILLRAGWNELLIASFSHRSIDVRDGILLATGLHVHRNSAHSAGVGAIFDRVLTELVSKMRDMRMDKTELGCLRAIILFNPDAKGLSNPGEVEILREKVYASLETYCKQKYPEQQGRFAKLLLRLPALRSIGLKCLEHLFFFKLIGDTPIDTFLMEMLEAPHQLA
Nature of the assay: Inhibition of [3H]9-cis-RA binding to mouse Retinoid X receptor RXR beta.

The target in assay [5] is T4, Retinoic acid receptor RXR-gamma (Mus musculus, UniProt P28705).
T4 sequence (P28705 whole entry): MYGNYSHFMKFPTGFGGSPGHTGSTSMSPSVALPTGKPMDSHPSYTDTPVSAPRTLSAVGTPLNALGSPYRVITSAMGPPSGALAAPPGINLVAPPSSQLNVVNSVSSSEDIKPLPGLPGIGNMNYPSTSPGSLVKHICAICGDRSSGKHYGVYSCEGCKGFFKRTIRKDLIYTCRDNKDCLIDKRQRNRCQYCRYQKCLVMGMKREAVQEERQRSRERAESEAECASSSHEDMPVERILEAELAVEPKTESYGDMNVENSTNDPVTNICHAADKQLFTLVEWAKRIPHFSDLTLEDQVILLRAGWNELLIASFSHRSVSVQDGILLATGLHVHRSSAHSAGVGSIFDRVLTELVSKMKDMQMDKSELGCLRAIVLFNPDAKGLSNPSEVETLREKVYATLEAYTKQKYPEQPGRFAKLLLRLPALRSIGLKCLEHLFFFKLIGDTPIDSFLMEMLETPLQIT
Nature of the assay: Transcriptional activation in CV-1 cells expressing mouse Retinoid X receptor RXR gamma. It is filed as cell-based.

The target in assay [6] is T3, Retinoic acid receptor RXR-beta. Nature of the assay: Transcriptional activation in CV-1 cells expressing mouse Retinoid X receptor RXR beta. It is filed as cell-based.
For assay [7], the target named is T5, Retinoic acid receptor alpha (Homo sapiens, UniProt P10276).
T5 sequence (P10276 whole entry): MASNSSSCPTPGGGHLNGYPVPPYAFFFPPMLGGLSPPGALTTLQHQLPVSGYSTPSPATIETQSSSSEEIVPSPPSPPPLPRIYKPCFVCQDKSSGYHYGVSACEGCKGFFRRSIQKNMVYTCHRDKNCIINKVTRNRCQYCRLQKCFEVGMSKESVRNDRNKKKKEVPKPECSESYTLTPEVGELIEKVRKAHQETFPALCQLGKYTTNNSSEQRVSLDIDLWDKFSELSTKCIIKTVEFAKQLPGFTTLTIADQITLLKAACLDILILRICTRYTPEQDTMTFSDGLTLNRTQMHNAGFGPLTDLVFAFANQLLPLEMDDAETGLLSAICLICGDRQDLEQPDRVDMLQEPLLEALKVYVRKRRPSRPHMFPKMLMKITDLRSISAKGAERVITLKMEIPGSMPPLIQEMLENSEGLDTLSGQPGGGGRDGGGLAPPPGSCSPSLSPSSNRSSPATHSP
Nature of the assay: Inhibition of [3H]ATRA binding to human Retinoic acid receptor RAR alpha.

The target of assay [8] is T2, Retinoic acid receptor beta. Nature of the assay: Transcriptional activation in CV-1 cells expressing human Retinoic acid receptor RAR beta; Not active. It is filed as cell-based.
The target in assay [9] is T6, Retinoic acid receptor RXR-gamma (Homo sapiens, UniProt P48443).
T6 sequence (P48443 whole entry): T4 sequence (P28705 whole entry) with T13A, F15Y, V31A, P34S, S228T, S230G, V258M, S450T
Kind of assay: Inhibition of [3H]-9-cis-RA binding to human Retinoid X receptor RXR gamma.

In assay [10] the target is T5, Retinoic acid receptor alpha. Nature of the assay: Transcriptional activation in CV-1 cells expressing human Retinoic acid receptor RAR alpha; Not active. The assay is classed as cell-based.
Assay [11] addresses T7, Retinoic acid receptor RXR-alpha (Homo sapiens, UniProt P19793).
T7 sequence (P19793 whole entry): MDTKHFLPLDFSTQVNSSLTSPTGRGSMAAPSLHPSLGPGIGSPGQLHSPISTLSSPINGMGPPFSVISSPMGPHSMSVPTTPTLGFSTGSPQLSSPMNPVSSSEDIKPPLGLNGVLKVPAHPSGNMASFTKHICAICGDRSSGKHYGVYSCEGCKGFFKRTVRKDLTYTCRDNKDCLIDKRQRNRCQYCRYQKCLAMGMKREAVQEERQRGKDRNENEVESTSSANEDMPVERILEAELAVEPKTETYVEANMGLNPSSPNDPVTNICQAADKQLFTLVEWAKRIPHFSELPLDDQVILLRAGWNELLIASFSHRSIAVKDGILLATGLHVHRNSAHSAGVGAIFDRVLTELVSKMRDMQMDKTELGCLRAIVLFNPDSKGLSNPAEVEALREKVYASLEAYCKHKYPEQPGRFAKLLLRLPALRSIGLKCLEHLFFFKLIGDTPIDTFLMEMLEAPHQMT
Nature of the assay: Inhibition of [3H]9-cis-RA binding to human Retinoid X receptor RXR alpha.

Assay [12] addresses T1, Retinoic acid receptor gamma. Kind of assay: Transcriptional activation in CV-1 cells expressing human Retinoic acid receptor RAR gamma. It is filed as cell-based.
In assay [13] the target is T5, Retinoic acid receptor alpha. Nature of the assay: Transcriptional activation in CV-1 cells expressing human Retinoic acid receptor RAR alpha. It is filed as cell-based.
The target of assay [14] is T2, Retinoic acid receptor beta. Kind of assay: Transcriptional activation in CV-1 cells expressing human Retinoic acid receptor RAR beta. It is filed as cell-based.
In assay [15] the target is T7, Retinoic acid receptor RXR-alpha. Kind of assay: Transcriptional activation in CV-1 cells expressing human Retinoid X receptor RXR-alpha. It is filed as cell-based.

For the compound `CC(/C=C/CC1(c2ccc3c(c2)C(C)(C)CCC3(C)C)CCCC1)=C\C(=O)O`, the Kd in [1] is more than 1000 nM; in [2], more than 1000 nM; in assay [4], 7 nM; in assay [7], more than 1000 nM; in assay [9], 6 nM. For the same compound, the EC50 entry in [3] is “Not Active”; in assay [5] it was 24 nM; in assay [6], 19 nM; in assay [8], “Not Active”; in assay [10], “Not Active”.

Turning to `CC(/C=C/CC1(c2cc(C(C)(C)C)cc(C(C)(C)C)c2)CC1)=C\C(=O)O`, the Kd in assay [11] was 3 nM; in assay [1], more than 1000 nM; in [2], more than 1000 nM; in assay [4], 8 nM; in assay [7] it was more than 1000 nM. The EC50 is 391 nM in assay [12]; 733 nM in [13]; 139 nM in assay [14]; 23 nM in [5]; 19 nM in [6]; 30 nM in assay [15].

Regarding `CC(/C=C/CC1(c2cc3c(cc2C)C(C)(C)CCC3(C)C)CC1)=C\C(=O)O`, the Kd in assay [11] is 16 nM; in assay [1], more than 1000 nM; in assay [4], 18 nM; in [7], more than 1000 nM; in [9] it was 153 nM. The EC50 entry in assay [3] was “Not Active”; in assay [5], 36 nM; in [6], 9 nM; in assay [15], 31 nM; in assay [8], “Not Active”; in [10], “Not Active”.

As for `CC(/C=C/CC1(c2cc(C(C)(C)C)cc3c2CCC3(C)C)CC1)=C\C(=O)O`, the Kd in assay [1] is more than 1000 nM; in assay [2], more than 1000 nM; in [7], more than 1000 nM; in assay [9], 22 nM. Also, the EC50 entry in assay [3], in assay [8] and in [10] was “Not Active” in each case.

Compound `CC(/C=C/CC1(c2ccc3c(c2)C(C)(C)CCC3(C)C)CC1)=C\C(=O)O` had a Kd in assay [9] of 8 nM.

The term Kd denotes a measure of binding affinity in units of concentration. The EC50 is the concentration needed to bring the measured effect to its halfway point. A higher EC50 goes with weaker potency.

The values are drawn from ChEMBL document CHEMBL1136268, “Retinoic acid receptor ligands based on the 6-cyclopropyl-2,4-hexadienoic acid” (Bioorg Med Chem Lett, 2003).
